Measurements reported in patent US20160199524A1, “RADIOSENSITIVITY OF FLUOROPHORES AND USE OF RADIOPROTECTIVE AGENTS FOR DUAL-MODALITY IMAGING” (Immunomedics, Inc., priority 2015, published 2016).

Tests used:
[1] = Biodistribution of Al^18F(IMP485) alone or TF2 pretargeted; conditions: nude, mouse, in vivo, iv, total radioactivity; for tissue uptake at 3 h / tissue uptake dose at 3 h: 28 uCi, alone, 3 h post injection
Procedure: (§1) Mice were necropsied at 1 and 3 h post injection, 7 mice per time point.
(§2) Biodistribution studies were performed in Taconic nude mice bearing subcutaneous LS174T tumor xenografts.
(§3) Mice were necropsied at 1 and 3 h post injection, 6 mice per time point.

[2] = system: nude mice bearing LS174T human colonic cancer xenografts; experiment: in vivo
Procedure: as §1, §2, §3

[3] = Taconic nude, mouse, in vivo, iv, 1 h
[4] = Taconic nude, mouse, in vivo, iv, 3 h
[5] = nude (Taconic), mouse, in vivo, iv, 3 h
[6] = nude, mouse, in vivo, iv, 28 uCi, 3 h

## NC(=O)[C@@H](CCCCNC(=O)CNC(=O)CCC(=O)NCCc1c[nH]cn1)NC(=O)[C@@H](Cc1ccc(O)cc1)NC(=O)[C@@H](CCCCNC(=O)CNC(=O)CCC(=O)NCCc1c[nH]cn1)NC(=O)Cc1ccc(CN2CCN(CC(=O)O)CCN(CC(=O)O)CC2)cc1 [Al^18F(IMP485)]
[1]; % ID/g Spleen
  tissue uptake at 3 h: 0.065 %ID/g
[1]; % ID/g Stomach
  tissue uptake at 3 h: 0.041 %ID/g
  tissue uptake at 1 h: 0.534 %ID/g
[1]; % ID/g Tumor
  tissue uptake at 3 h: 0.088 %ID/g
[1]; % ID/org Blood
  tissue uptake dose at 3 h: 0.013 %ID
  tissue uptake dose at 1 h: 0.456 %ID
[1]; % ID/org Kidney
  tissue uptake dose at 3 h: 0.345 %ID
[1]; % ID/org Lg. Int.
  tissue uptake dose at 3 h: 0.408 %ID
[1]; % ID/org Liver
  tissue uptake dose at 3 h: 0.114 %ID
[1]; % ID/org Scapula
  tissue uptake dose at 3 h: 0.006 %ID
[1]; % ID/org Sm. Int.
  tissue uptake dose at 3 h: 0.119 %ID
[1]; % ID/org Spleen
  tissue uptake dose at 3 h: 0.006 %ID
[1]; % ID/org Stomach
  tissue uptake dose at 3 h: 0.016 %ID
  tissue uptake dose at 1 h: 0.265 %ID
[1]; % ID/org Tumor
  tissue uptake dose at 3 h: 0.022 %ID
[1]; % ID/g Blood
  tissue uptake at 1 h: 0.278 %ID/g
[1]; % ID/g Lung
  tissue uptake at 1 h: 0.535 %ID/g
[1]; % ID/g Sm. Int.
  tissue uptake at 1 h: 0.686 %ID/g
[1]; % ID/org Lung
  tissue uptake dose at 1 h: 0.075 %ID
[2]; [3]
  % ID/g Lg. Int.: 0.10 ± 0.03 % ID/g
  % ID/g Liver: 0.24 ± 0.04 % ID/g
  % ID/g Muscle: 0.14 ± 0.10 % ID/g
[2]; [4]
  % ID/g Blood: 0.02 ± 0.01 % ID/g
  % ID/g Lung: 0.24 ± 0.06 % ID/g
  % ID/g Muscle: 0.03 ± 0.01 % ID/g
  % ID/g Stomach: 0.03 ± 0.02 % ID/g
[2]; alone, 1 h post injection
  % ID/g Sm. Int.: 0.40 ± 0.13 % ID/g
  % ID/g Spleen: 0.21 ± 0.18 % ID/g
  % ID/g Stomach: 0.13 ± 0.11 % ID/g
  % ID/g Tumor: 0.32 ± 0.11 % ID/g
  T/NT Blood: 2.0
  T/NT Kidney: 0.1
  T/NT Lg. Int.: 3.9
  T/NT Liver: 1.8
  T/NT Lung: 1.3
  T/NT Muscle: 4.1
  T/NT Scapula: 2.9
  T/NT Sm. Int.: 0.8
  T/NT Spleen: 1.9
  T/NT Stomach: 3.5
  T/NT Tumor: 1.0
[2]; alone, 3 h post injection
  % ID/g Stomach: 0.04 ± 0.02 % ID/g
  % ID/g Tumor: 0.09 ± 0.02 % ID/g
  T/NT Blood: 21.0
  T/NT Kidney: 0.0
  T/NT Lg. Int.: 0.1
  T/NT Liver: 13.6
  T/NT Lung: 1.3
  T/NT Muscle: 203.9
  T/NT Scapula: 1.2
  T/NT Sm. Int.: 0.7
  T/NT Spleen: 1.4
  T/NT Stomach: 2.5
  T/NT Tumor: 1.0
[2]; mouse, in vivo
  T/NT Tumor: 1
[2]; nude (Taconic), mouse, in vivo, iv, 28 uCi, 1 h
  % ID/g Lg. Int.: 0.08 ± 0.02 % ID/g
[2]; nude (Taconic), mouse, in vivo, iv, 28 uCi, 3 h
  % ID/g Lung: 0.07 ± 0.02 % ID/g
[2]; [5]
  % ID/g Scapula: 0.06 ± 0.02 % ID/g
  % ID/g Spleen: 0.25 ± 0.11 % ID/g
[2]; [6]
  % ID/g Liver: 0.10 ± 0.05 % ID/g
  % ID/g Muscle: 0.01 ± 0.01 % ID/g
[2]; nude, mouse, in vivo, iv, 1 h
  % ID/g Blood: 0.28 ± 0.07 % ID/g
  % ID/g Stomach: 0.53 ± 1.18 % ID/g
